Assay results taken from patent US11331299B2, “Medicinal use of serrulatane diterpenes” (The University of Sydney, priority 2016, dated 2022).
Read-outs that look alike come from different tables or passages of the source.

Test system: 280 human cancer cell lines
Experiment: OncoPanel cell proliferation assay (10-day)
Format: cell-based
Details: Homo sapiens; for GI50: read-out: Cell Count GI50; for IC50: read-out: Cell Count IC50; for EC50: read-out: Cell Count EC50
[1] = KHOS-240S, Soft Tissue - Osteosarcoma
[2] = ME-180, ME-180, Female GU - Ovary
[3] = MG-63, MG-63, Soft Tissue - Osteosarcoma
[4] = MHH-PREB-1, MHH-PREB-1, Leukemia
[5] = MIA PaCa-2, Mia PaCa-2, Pancreas
[6] = MS751, MS751, Female GU - Ovary
[7] = Malme-3M, MALME3M, Skin (Melanoma)

`CC(C)=CCC[C@H](C)[C@@H]1CC[C@@H](C)c2c1cc(C)c(O)c2O` [Compound 4, 7,8-dihydroxyserrulat-14-ene] was tested, and the GI50 [1] was 4.96 µM, the IC50 [1] was 4.96 µM and the EC50 (KLE, Female GU - Uterus) was 18.2 µM. The GI50 (KLE, Female GU - Uterus) was 16.6 µM, the IC50 (KLE, Female GU - Uterus) was 18.2 µM and the EC50 (KPL-1, KPL-1, Breast) was 4.18 µM. For the same compound, the GI50 (KPL-1, KPL-1, Breast) was 4.13 µM, the IC50 (KPL-1, KPL-1, Breast) was 4.18 µM and the EC50 (KU812, KU812, Leukemia) was 9.5 µM. For the same compound, the GI50 (KU812, KU812, Leukemia) was 9.13 µM, the IC50 (KU812, KU812, Leukemia) was 9.5 µM and the EC50 (L-428, L-428, Lymphoma) was 2.07 µM. It also gave a GI50 (L-428, L-428, Lymphoma) of 2.06 µM, an IC50 (L-428, L-428, Lymphoma) of 2.07 µM and an EC50 (LNCaP, Prostate) of 11.5 µM. It also gave a GI50 (LNCaP, Prostate) of 12.4 µM, an IC50 (LNCaP, Prostate) of 12.9 µM and an EC50 (LS-123, LS123, Colon) of 12 µM. For the same compound, the GI50 (LS-123, LS123, Colon) was 10.7 µM, the IC50 (LS-123, LS123, Colon) was 12 µM and the EC50 (LS-411N, LS411N, Colon) was 23.1 µM. It also gave a GI50 (LS-411N, LS411N, Colon) of 22.6 µM, an IC50 (LS-411N, LS411N, Colon) of 23.1 µM and an EC50 (LS-1034, LS1034, Colon) of 23.6 µM. For the same compound, the GI50 (LS-1034, LS1034, Colon) was 23.5 µM, the IC50 (LS-1034, LS1034, Colon) was 23.6 µM and the EC50 (M059J, CNS - Glioma) was 13 µM. It also gave a GI50 (M059J, CNS - Glioma) of 12.9 µM, an IC50 (M059J, CNS - Glioma) of 13 µM and an EC50 (MC116, MC116, Lymphoma) of 12.5 µM. For the same compound, the GI50 (MC116, MC116, Lymphoma) was 12.4 µM, the IC50 (MC116, MC116, Lymphoma) was 12.5 µM and the EC50 (MC-IXC, CNS - Neuroblastoma) was 6.88 µM. It also gave a GI50 (MC-IXC, CNS - Neuroblastoma) of 6.88 µM, an IC50 (MC-IXC, CNS - Neuroblastoma) of 6.88 µM and an EC50 (MCF7, MCF7, Breast) of 12.1 µM. For the same compound, the GI50 (MCF7, MCF7, Breast) was 11.9 µM, the IC50 (MCF7, MCF7, Breast) was 12.1 µM and the EC50 (MDA-MB-231, MDA MB 231, Breast) was 11.4 µM. It also gave a GI50 (MDA-MB-231, MDA MB 231, Breast) of 11.3 µM, an IC50 (MDA-MB-231, MDA MB 231, Breast) of 11.4 µM and an EC50 (MDA-MB-436, MDA-MB-436, Breast) of 10.3 µM. For the same compound, the GI50 (MDA-MB-436, MDA-MB-436, Breast) was 10.2 µM, the IC50 (MDA-MB-436, MDA-MB-436, Breast) was 10.3 µM and the EC50 (MDA-MB-453, MDA MB 453, Breast) was 3.76 µM. For the same compound, the GI50 (MDA-MB-453, MDA MB 453, Breast) was 3.68 µM, the IC50 (MDA-MB-453, MDA MB 453, Breast) was 3.76 µM and the EC50 (MDA-MB-468, MDA MB 468, Breast) was 7.41 µM. It also gave a GI50 (MDA-MB-468, MDA MB 468, Breast) of 7.34 µM, an IC50 (MDA-MB-468, MDA MB 468, Breast) of 7.43 µM and an EC50 [2] of 25.3 µM. It also gave a GI50 [2] of 25.2 µM, an IC50 [2] of 25.3 µM and an EC50 (MEG-01, MEG01, Leukemia) of 8.39 µM. It also gave a GI50 (MEG-01, MEG01, Leukemia) of 8.37 µM, an IC50 (MEG-01, MEG01, Leukemia) of 8.39 µM and an EC50 (MES-SA, Soft Tissue - Sarcoma) of 6.49 µM. The GI50 (MES-SA, Soft Tissue - Sarcoma) was 6.44 µM, the IC50 (MES-SA, Soft Tissue - Sarcoma) was 6.49 µM and the EC50 [3] was 11.2 µM. The GI50 [3] was 11.1 µM, the IC50 [3] was 11.2 µM and the EC50 [4] was 5.71 µM. It also gave a GI50 [4] of 5.71 µM, an IC50 [4] of 5.71 µM and an EC50 [5] of 11 µM. For the same compound, the GI50 [5] was 11 µM, the IC50 [5] was 11 µM and the EC50 (MOLT-3, MOLT-3, Leukemia) was 3.15 µM. For the same compound, the GI50 (MOLT-3, MOLT-3, Leukemia) was 3.13 µM, the IC50 (MOLT-3, MOLT-3, Leukemia) was 3.15 µM and the EC50 (MOLT-16, MOLT-16, Leukemia) was 4.02 µM. The GI50 (MOLT-16, MOLT-16, Leukemia) was 4.01 µM, the IC50 (MOLT-16, MOLT-16, Leukemia) was 4.02 µM and the EC50 [6] was 12.1 µM. The GI50 [6] was 12 µM, the IC50 [6] was 12.1 µM and the EC50 (MT-3, Colon) was 23.9 µM. It also gave a GI50 (MT-3, Colon) of 23.8 µM, an IC50 (MT-3, Colon) of 23.9 µM and an EC50 (MV4-11, MV-4-11, Leukemia) of 3.81 µM. The GI50 (MV4-11, MV-4-11, Leukemia) was 3.8 µM, the IC50 (MV4-11, MV-4-11, Leukemia) was 3.81 µM and the EC50 (MX1, Leukemia) was 2.46 µM. For the same compound, the GI50 (MX1, Leukemia) was 2.46 µM, the IC50 (MX1, Leukemia) was 2.46 µM and the EC50 [7] was 20.6 µM. For the same compound, the GI50 [7] was 17.8 µM, the IC50 [7] was 20.6 µM and the EC50 (MeWo, Skin (Melanoma)) was 9.66 µM. For the same compound, the GI50 (MeWo, Skin (Melanoma)) was 9.51 µM, the IC50 (MeWo, Skin (Melanoma)) was 9.66 µM and the EC50 (NALM-6, NALM-6, Leukemia) was 2.61 µM. The GI50 (NALM-6, NALM-6, Leukemia) was 2.61 µM, the IC50 (NALM-6, NALM-6, Leukemia) was 2.61 µM and the EC50 (NAMALWA, Lymphoma) was 3.91 µM. It also gave a GI50 (NAMALWA, Lymphoma) of 3.9 µM, an IC50 (NAMALWA, Lymphoma) of 3.91 µM and an EC50 (NCI-H69, NCI-H69, Lung - SCLC) of 15.9 µM. The GI50 (NCI-H69, NCI-H69, Lung - SCLC) was 15.1 µM and the IC50 (NCI-H69, NCI-H69, Lung - SCLC) was 15.9 µM.
